Assay results published in paper PMC5218480 (PLoS ONE, 2017).

Test system: MV-4-11 cells
Test: Gene expression microarray analysis (Affymetrix PrimeView) and GSEA
Type: cell-based, human
Design: RFU PODN (11730768_x_at) / Fold change /veh PODN (11730768_x_at) / RFU LINC00158 (11744669_a_at) / Fold change /veh LINC00158 (11744669_a_at) / RFU DUSP10 (11751237_a_at) / Fold change /veh DUSP10 (11751237_a_at) / RFU ID3 (11757404_x_at) / Fold change /veh ID3 (11757404_x_at) / RFU PLEKHG5 (11737974_s_at) / Fold change /veh PLEKHG5 (11737974_s_at) / RFU LRRC4B (11730491_at) / Fold change /veh LRRC4B (11730491_at) / RFU GIMAP4 (11747438_a_at) / Fold change /veh GIMAP4 (11747438_a_at) / RFU KRT8 (11758183_x_at) / Fold change /veh KRT8 (11758183_x_at) / RFU CNN1 (11734310_a_at) / Fold change /veh CNN1 (11734310_a_at) / RFU VPS37D (11726825_at) / Fold change /veh VPS37D (11726825_at) / RFU C10orf10 (11716522_x_at) / Fold change /veh C10orf10 (11716522_x_at) / RFU KIR2DL2 /// KIR2DL4 /// KIR2DL5A /// KIR2DL5B /// KIR2DS1 /// KIR2DS2 /// KIR2DS3 /// KIR2DS4 /// KIR3DL3 /// KIR3DL3 /// KIR3DS1 (11738374_at) / Fold change /veh KIR2DL2 /// KIR2DL4 /// KIR2DL5A /// KIR2DL5B /// KIR2DS1 /// KIR2DS2 /// KIR2DS3 /// KIR2DS4 /// KIR3DL3 /// KIR3DL3 /// KIR3DS1 (11738374_at) / RFU C1QL1 (11718748_at) / Fold change /veh C1QL1 (11718748_at) / RFU TMPRSS4 (11747572_a_at) / Fold change /veh TMPRSS4 (11747572_a_at) / RFU HAMP (11756126_x_at) / Fold change /veh HAMP (11756126_x_at) / RFU RNFT2 (11725882_a_at) / Fold change /veh RNFT2 (11725882_a_at) / RFU NR4A2 (11747474_a_at) / Fold change /veh NR4A2 (11747474_a_at) / RFU ABCC12 (11746883_a_at) / Fold change /veh ABCC12 (11746883_a_at) / RFU TMEM136 (11760407_x_at) / Fold change /veh TMEM136 (11760407_x_at) / RFU CLDN22 /// WWC2 (11732394_at) / Fold change /veh CLDN22 /// WWC2 (11732394_at) / RFU HLA-DPB1 (11760878_x_at) / Fold change /veh HLA-DPB1 (11760878_x_at) / RFU SPINT1 (11716480_a_at) / Fold change /veh SPINT1 (11716480_a_at) / RFU GAP43 (11754022_s_at) / Fold change /veh GAP43 (11754022_s_at) / RFU A4GNT (11735810_at) / Fold change /veh A4GNT (11735810_at) / RFU PRB3 (11715151_x_at) / Fold change /veh PRB3 (11715151_x_at) / RFU TUBB4B (11761932_at) / Fold change /veh TUBB4B (11761932_at) / RFU CAPN14 (11732068_a_at) / Fold change /veh CAPN14 (11732068_a_at) / RFU TMCC2 (11721928_a_at) / Fold change /veh TMCC2 (11721928_a_at) / RFU IRGQ (11745062_a_at) / Fold change /veh IRGQ (11745062_a_at) / RFU FAM174B (11720279_a_at) / Fold change /veh FAM174B (11720279_a_at) / RFU TMPRSS4 (11748680_a_at) / Fold change /veh TMPRSS4 (11748680_a_at) / RFU FAM212B (11763350_a_at) / Fold change /veh FAM212B (11763350_a_at) / RFU PLEKHG5 (11743358_a_at) / Fold change /veh PLEKHG5 (11743358_a_at) / RFU ZSCAN30 (11745921_a_at) / Fold change /veh ZSCAN30 (11745921_a_at) / RFU CMKLR1 (11741424_a_at) / Fold change /veh CMKLR1 (11741424_a_at) / RFU LOC101060620 /// MAPK8IP1 (11723275_at) / Fold change /veh LOC101060620 /// MAPK8IP1 (11723275_at) / RFU SPTSSB (11747773_x_at) / Fold change /veh SPTSSB (11747773_x_at) / RFU PRSS12 (11739890_at) / Fold change /veh PRSS12 (11739890_at) / RFU BIN1 (11741810_x_at) / Fold change /veh BIN1 (11741810_x_at) / RFU WNT11 (11732464_a_at) / Fold change /veh WNT11 (11732464_a_at) / RFU C10orf10 (11716521_a_at) / Fold change /veh C10orf10 (11716521_a_at) / RFU C5orf56 (11738089_at) / Fold change /veh C5orf56 (11738089_at) / RFU CYB561 (11721691_x_at) / Fold change /veh CYB561 (11721691_x_at) / RFU ANKRD19P (11752326_a_at) / Fold change /veh ANKRD19P (11752326_a_at) / RFU OR2T12 /// OR2T33 /// OR2T8 (11738714_s_at) / Fold change /veh OR2T12 /// OR2T33 /// OR2T8 (11738714_s_at) / RFU VCAN (11748164_a_at) / Fold change /veh VCAN (11748164_a_at) / RFU JSRP1 (11732532_at) / Fold change /veh JSRP1 (11732532_at) / RFU KRTAP10-11 (11738290_x_at) / Fold change /veh KRTAP10-11 (11738290_x_at) / RFU MYO3A (11730013_a_at) / Fold change /veh MYO3A (11730013_a_at) / RFU EBF3 (11725865_a_at) / Fold change /veh EBF3 (11725865_a_at) / RFU CAMK2N1 (11719241_x_at) / Fold change /veh CAMK2N1 (11719241_x_at) / RFU C5orf56 (11738088_a_at) / Fold change /veh C5orf56 (11738088_a_at) / RFU OLFML3 (11715873_a_at) / Fold change /veh OLFML3 (11715873_a_at) / RFU LOC100653217 /// NTM (11731650_a_at) / Fold change /veh LOC100653217 /// NTM (11731650_a_at) / RFU MAPK11 (11762145_a_at) / Fold change /veh MAPK11 (11762145_a_at) / RFU FIZ1 (11724087_x_at) / Fold change /veh FIZ1 (11724087_x_at) / RFU OASL (11726364_x_at) / Fold change /veh OASL (11726364_x_at) / RFU SOX15 (11748057_x_at) / Fold change /veh SOX15 (11748057_x_at) / RFU CD79A (11719716_a_at) / Fold change /veh CD79A (11719716_a_at) / RFU HIST1H1D (11736915_at) / Fold change /veh HIST1H1D (11736915_at) / RFU CASKIN2 (11723855_a_at) / Fold change /veh CASKIN2 (11723855_a_at) / RFU LOC730098 (11760151_x_at) / Fold change /veh LOC730098 (11760151_x_at) / RFU OR4N2 (11742367_at) / Fold change /veh OR4N2 (11742367_at) / RFU PRRT2 (11749266_a_at) / Fold change /veh PRRT2 (11749266_a_at) / RFU SNX32 (11753110_a_at) / Fold change /veh SNX32 (11753110_a_at) / RFU CDHR5 (11726645_a_at) / Fold change /veh CDHR5 (11726645_a_at) / RFU RCAN1 (11760418_a_at) / Fold change /veh RCAN1 (11760418_a_at) / RFU FAM167A (11723789_a_at) / Fold change /veh FAM167A (11723789_a_at) / RFU FAM26E (11764081_at) / Fold change /veh FAM26E (11764081_at) / RFU ISYNA1 (11749810_s_at) / Fold change /veh ISYNA1 (11749810_s_at) / RFU ACY1 (11761880_at) / Fold change /veh ACY1 (11761880_at) / RFU 11764098_at / Fold change /veh 11764098_at / RFU SAMD14 (11745864_x_at) / Fold change /veh SAMD14 (11745864_x_at) / RFU NPB (11741838_a_at) / Fold change /veh NPB (11741838_a_at) / RFU TMPRSS6 (11731388_a_at) / Fold change /veh TMPRSS6 (11731388_a_at) / RFU KRTAP10-2 (11738614_at) / Fold change /veh KRTAP10-2 (11738614_at) / RFU ARHGAP8 /// PRR5-ARHGAP8 (11727945_x_at) / Fold change /veh ARHGAP8 /// PRR5-ARHGAP8 (11727945_x_at) / RFU KRTAP5-7 /// NADSYN1 (11734609_at) / Fold change /veh KRTAP5-7 /// NADSYN1 (11734609_at) / RFU RASL12 (11751679_a_at) / Fold change /veh RASL12 (11751679_a_at) / RFU CDKN2B (11736163_a_at) / Fold change /veh CDKN2B (11736163_a_at) / RFU PRF1 (11729649_at) / Fold change /veh PRF1 (11729649_at) / RFU, ZNF638 /// ZNF638-IT1 / Fold change vs veh, ZNF638 /// ZNF638-IT1 / RFU, PANK3 / Fold change vs veh, PANK3 / RFU, SH3YL1 / Fold change vs veh, SH3YL1 / RFU, ZEB2 / Fold change vs veh, ZEB2 / RFU, NRIP1 / Fold change vs veh, NRIP1 / RFU, PTTG1IP / Fold change vs veh, PTTG1IP / RFU, CAPN2 / Fold change vs veh, CAPN2 / RFU, MED14 / Fold change vs veh, MED14 / RFU, SNORA58 / Fold change vs veh, SNORA58 / RFU, C1orf63 / Fold change vs veh, C1orf63 / RFU, LRRFIP1 / Fold change vs veh, LRRFIP1 / RFU, NDUFAF7 / Fold change vs veh, NDUFAF7 / RFU, SLC12A2 / Fold change vs veh, SLC12A2 / RFU, IBTK / Fold change vs veh, IBTK / RFU, ESF1 / Fold change vs veh, ESF1 / Fold change vs veh, TMEM50B / RFU, TAOK1 / Fold change vs veh, TAOK1 / RFU, ACBD3 / Fold change vs veh, ACBD3 / RFU, TMA16 / Fold change vs veh, TMA16 / RFU, RWDD3 / Fold change vs veh, RWDD3 / RFU, BCAT1 / Fold change vs veh, BCAT1 / RFU, EDEM3 / Fold change vs veh, EDEM3 / RFU, TMEM33 / Fold change vs veh, TMEM33 / RFU, WDR75 / Fold change vs veh, WDR75 / RFU, AHCTF1 / Fold change vs veh, AHCTF1 / RFU, TFRC / Fold change vs veh, TFRC / RFU, ZDHHC17 / Fold change vs veh, ZDHHC17 / RFU, NOM1 / Fold change vs veh, NOM1 / RFU, ARL8B / Fold change vs veh, ARL8B / RFU, ZBTB11 / Fold change vs veh, ZBTB11 / RFU, TAMM41 / Fold change vs veh, TAMM41 / RFU, KIAA1704 /// LOC100996395 / Fold change vs veh, KIAA1704 /// LOC100996395 / RFU, ING1 / Fold change vs veh, ING1 / RFU, TRMT61B / Fold change vs veh, TRMT61B / RFU, FUBP3 / Fold change vs veh, FUBP3 / RFU, TP53 / Fold change vs veh, TP53 / RFU, TNKS2 / Fold change vs veh, TNKS2 / RFU, ZFP14 / Fold change vs veh, ZFP14 / RFU, ACTR2 / Fold change vs veh, ACTR2 / RFU, PPP3R1 / Fold change vs veh, PPP3R1 / RFU, PIK3R1 / Fold change vs veh, PIK3R1 / RFU, HNRNPA1 / Fold change vs veh, HNRNPA1 / RFU, RNF170 / Fold change vs veh, RNF170 / RFU, ZNF28 / Fold change vs veh, ZNF28 / RFU, RNGTT / Fold change vs veh, RNGTT / RFU, OGT / Fold change vs veh, OGT / RFU, BRD1 / Fold change vs veh, BRD1 / RFU, MARS / Fold change vs veh, MARS / RFU, ZNF655 / Fold change vs veh, ZNF655 / RFU, FAHD1 / Fold change vs veh, FAHD1 / RFU, BDP1 / Fold change vs veh, BDP1 / RFU, LRRCC1 / Fold change vs veh, LRRCC1 / RFU, ARID1A / Fold change vs veh, ARID1A / RFU, ZNF146 / Fold change vs veh, ZNF146 / RFU, ZNF330 / Fold change vs veh, ZNF330 / RFU, GPN3 / Fold change vs veh, GPN3 / RFU, C9orf123 / Fold change vs veh, C9orf123 / RFU, N4BP2L2 / Fold change vs veh, N4BP2L2 / RFU, ARFIP1 / Fold change vs veh, ARFIP1 / RFU, FAM179B / Fold change vs veh, FAM179B / RFU, BCL10 / Fold change vs veh, BCL10 / RFU, UHRF1BP1L / Fold change vs veh, UHRF1BP1L / RFU, BET1 / Fold change vs veh, BET1 / RFU, CNOT2 / Fold change vs veh, CNOT2 / RFU, ZNF268 / Fold change vs veh, ZNF268 / Fold change vs veh, ZNF507 / RFU, DGCR2 / Fold change vs veh, DGCR2 / RFU, WDSUB1 / Fold change vs veh, WDSUB1 / Fold change vs veh, HSP90B1 /// MIR3652 / RFU, ADSS / Fold change vs veh, ADSS / RFU, GK / Fold change vs veh, GK / RFU, ZNF148 / Fold change vs veh, ZNF148 / RFU, TAF9 / Fold change vs veh, TAF9 / RFU, SLC1A5 / Fold change vs veh, SLC1A5 / RFU, SLMO2 / Fold change vs veh, SLMO2 / RFU, ABCC4 / Fold change vs veh, ABCC4 / RFU, LOC101060439 /// RAP1B / Fold change vs veh, LOC101060439 /// RAP1B / RFU, RFX7 / Fold change vs veh, RFX7 / RFU, GTPBP10 / Fold change vs veh, GTPBP10 / RFU, CNEP1R1 / Fold change vs veh, CNEP1R1 / RFU, BIVM-ERCC5 /// ERCC5 / Fold change vs veh, BIVM-ERCC5 /// ERCC5 / RFU, ILF3 / Fold change vs veh, ILF3 / RFU 11762660_at / Fold change /veh 11762660_at / RFU VCAN (11757783_s_at) / Fold change /veh VCAN (11757783_s_at) / RFU DDX43 (11728927_at) / Fold change /veh DDX43 (11728927_at) / RFU KRT8 (11758188_x_at) / Fold change /veh KRT8 (11758188_x_at) / RFU NKD1 (11759106_at) / Fold change /veh NKD1 (11759106_at) / RFU SRD5A1 (11742802_a_at) / Fold change /veh SRD5A1 (11742802_a_at) / RFU TPSAB1 /// TPSB2 (11721975_s_at) / Fold change /veh TPSAB1 /// TPSB2 (11721975_s_at) / RFU GSTM3 (11746129_a_at) / Fold change /veh GSTM3 (11746129_a_at) / RFU IL23R (11737362_x_at) / Fold change /veh IL23R (11737362_x_at) / RFU TMEM51 (11727254_a_at) / Fold change /veh TMEM51 (11727254_a_at) / RFU PIWIL2 (11732686_x_at) / Fold change /veh PIWIL2 (11732686_x_at) / RFU ORM1 (11744905_x_at) / Fold change /veh ORM1 (11744905_x_at) / RFU CCDC152 (11743942_at) / Fold change /veh CCDC152 (11743942_at) / RFU ECM1 (11717891_a_at) / Fold change /veh ECM1 (11717891_a_at) / RFU IL23R (11748794_a_at) / Fold change /veh IL23R (11748794_a_at) / RFU TNFAIP8L3 (11732012_x_at) / Fold change /veh TNFAIP8L3 (11732012_x_at) / RFU MBOAT4 (11741988_at) / Fold change /veh MBOAT4 (11741988_at) / RFU 11764193_at / Fold change /veh 11764193_at / RFU TMEM53 (11763286_at) / Fold change /veh TMEM53 (11763286_at) / RFU MAGEB2 (11727129_at) / Fold change /veh MAGEB2 (11727129_at) / RFU TMEM200A (11744735_a_at) / Fold change /veh TMEM200A (11744735_a_at) / RFU CCDC152 (11751479_a_at) / Fold change /veh CCDC152 (11751479_a_at) / RFU FAM211A (11726209_a_at) / Fold change /veh FAM211A (11726209_a_at) / RFU RGS16 (11746705_a_at) / Fold change /veh RGS16 (11746705_a_at) / RFU VCAN (11755009_s_at) / Fold change /veh VCAN (11755009_s_at) / RFU RHOB (11743442_s_at) / Fold change /veh RHOB (11743442_s_at) / RFU RGS16 (11720943_a_at) / Fold change /veh RGS16 (11720943_a_at) / RFU RGS16 (11720944_at) / Fold change /veh RGS16 (11720944_at) / RFU, VPS4B / Fold change vs veh, VPS4B / RFU, CREB1 / Fold change vs veh, CREB1 / RFU, DNAJC13 / Fold change vs veh, DNAJC13 / RFU, GNAQ / Fold change vs veh, GNAQ / RFU, CDK5R1 / Fold change vs veh, CDK5R1 / RFU, ZRANB3 / Fold change vs veh, ZRANB3 / RFU, CUL4A / Fold change vs veh, CUL4A / RFU, CCNY / Fold change vs veh, CCNY / RFU, UFL1 / Fold change vs veh, UFL1 / RFU, COG3 / Fold change vs veh, COG3 / RFU, DIAPH2 / Fold change vs veh, DIAPH2 / RFU, SKA2 / Fold change vs veh, SKA2 / RFU, AFF3 / Fold change vs veh, AFF3 / RFU, LMF1 / Fold change vs veh, LMF1 / RFU, IPO11 / Fold change vs veh, IPO11 / RFU, DFFB / Fold change vs veh, DFFB / RFU, FOXP1 / Fold change vs veh, FOXP1 / RFU, CARD8 / Fold change vs veh, CARD8 / RFU, STRN3 / Fold change vs veh, STRN3 / RFU, ADK / Fold change vs veh, ADK / RFU, RASSF2 / Fold change vs veh, RASSF2 / RFU, WIPF1 / Fold change vs veh, WIPF1 / RFU, LARP1B / Fold change vs veh, LARP1B / RFU, RASA1 / Fold change vs veh, RASA1 / RFU, RB1 / Fold change vs veh, RB1 / RFU, PPFIA1 / Fold change vs veh, PPFIA1 / RFU, MAT2A / Fold change vs veh, MAT2A / RFU, CCT5 / Fold change vs veh, CCT5 / RFU, WDR92 / Fold change vs veh, WDR92 / RFU, CUX1 / Fold change vs veh, CUX1 / RFU, TTC7A / Fold change vs veh, TTC7A / RFU, TMEM135 / Fold change vs veh, TMEM135 / RFU, DEPTOR / Fold change vs veh, DEPTOR / RFU, CPM / Fold change vs veh, CPM / RFU, DNAJB6 / Fold change vs veh, DNAJB6 / RFU, CACNA2D3 / Fold change vs veh, CACNA2D3 / RFU, DTX4 / Fold change vs veh, DTX4 / RFU, TFCP2 / Fold change vs veh, TFCP2 / RFU, GMCL1 /// GMCL1P1 / Fold change vs veh, GMCL1 /// GMCL1P1 / RFU, AEBP2 / Fold change vs veh, AEBP2 / RFU, SNHG1 /// SNORD22 /// SNORD25 /// SNORD26 /// SNORD27 /// SNORD28 /// SNORD29 /// SNORD31 / Fold change vs veh, SNHG1 /// SNORD22 /// SNORD25 /// SNORD26 /// SNORD27 /// SNORD28 /// SNORD29 /// SNORD31 / Fold change (Aza/veh), C12orf56 (ProbeSet 11735607_a_at) / Fold change (ACY-1035/veh), C12orf56 (ProbeSet 11735607_a_at) / Fold change (Aza/veh), FGFR1OP (ProbeSet 11751329_s_at) / Fold change (ACY-1035/veh), FGFR1OP (ProbeSet 11751329_s_at) / Fold change (Aza/veh), VPS36 (ProbeSet 11739960_a_at) / Fold change (ACY-1035/veh), VPS36 (ProbeSet 11739960_a_at) / RFU SYPL1 (11715823_x_at) / Fold change /veh SYPL1 (11715823_x_at) / RFU IGFBP7 (11715501_s_at) / Fold change /veh IGFBP7 (11715501_s_at) / RFU REEP3 (11722064_at) / Fold change /veh REEP3 (11722064_at) / RFU IGLL1 (11728026_x_at) / Fold change /veh IGLL1 (11728026_x_at): dose or concentration left out as unconfirmed
Settings: MV-4-11 cells, 48 hours

With `Nc1ncn([C@@H]2O[C@H](CO)[C@@H](O)[C@H]2O)c(=O)n1` [azacitidine] the “RFU ECM1 (11717891_a_at)” value was 24.53 RFU.
